Here are results for 13 compounds from patent US8889676B2, “3-ureidoisoquinolin-8-yl derivatives” (Actelion Pharmaceuticals Ltd., priority 2011, dated 2014).

SMILES strings stand for the structures. Values after ≈ are worked out from the molar mass of the structure shown.

The test concerns S. pneumoniae ATCC 49619. The test can be described thus: Minimal inhibitory concentration (MIC) by broth microdilution (CLSI M7-A7). The following applies: Streptococcus pneumoniae, ATCC49619; cation-adjusted Mueller Hinton Broth supplemented with 3% (v/v) lysed horse blood; microdilution method. It is filed as cell-based, Streptococcus pneumoniae. In short, it runs like this: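 Broth microdilution per CLSI M7-A7 in cation-adjusted Mueller-Hinton broth with 3% (v/v) lysed horse blood for S. pneumoniae. MIC in mg/l.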
A general note: In broth dilution the organism is exposed to a series of concentrations in liquid medium.
As a reminder, the MIC is the smallest concentration in the dilution series that meets the test's criterion for growth inhibition. For `C#CCOC(=O)NCc1ccc(-c2cccc(C(N)=O)c2)c2cc(NC(=O)NCC)ncc12.Cl` [Example 136, [5-(3-carbamoyl-phenyl)-3-(3-ethyl-ureido)-isoquinolin-8-ylmethyl]-carbamic acid prop-2-ynyl ester hydrochloride], inhibition of growth (MIC) required 2 µg/mL.

`C#CCOC(=O)NCc1ccc(-c2ccc(C(=O)O)cc2)c2cc(NC(=O)NCC)ncc12.Cl` [Example 137, 4-[3-(3-ethyl-ureido)-8-(prop-2-ynyloxycarbonylamino-methyl)-isoquinolin-5-yl]-benzoic acid hydrochloride] displayed an MIC of 0.25 µg/mL. The compound `C#CCOC(=O)NCc1ccc(-c2ccc(O)cc2)c2cc(NC(=O)NCC)ncc12.Cl` [Example 138, [3-(3-ethyl-ureido)-5-(4-hydroxy-phenyl)-isoquinolin-8-ylmethyl]-carbamic acid prop-2-ynyl ester hydrochloride] displayed a minimal inhibitory concentration (MIC) of 0.5 µg/mL. Compared with the last compound, the MIC is about 2-fold higher.

For `C#CCOC(=O)NCc1ccc(-c2ccccc2O)c2cc(NC(=O)NCC)ncc12.Cl` [Example 139, [3-(3-ethyl-ureido)-5-(2-hydroxy-phenyl)-isoquinolin-8-ylmethyl]-carbamic acid prop-2-ynyl ester hydrochloride], 1 µg/mL was the least that counted as inhibitory (MIC). Compared with the last compound, the MIC is about 2-fold higher. In the case of `C#CCOC(=O)NCc1ccc(-c2cncnc2)c2cc(NC(=O)NCC)ncc12.Cl` [Example 140, [3-(3-ethyl-ureido)-5-pyrimidin-5-yl-isoquinolin-8-ylmethyl]-carbamic acid prop-2-ynyl ester hydrochloride] it was 1 µg/mL. In the case of `C#CCOC(=O)NCc1ccc(-c2ccc(C(N)=O)cc2)c2cc(NC(=O)NCC)ncc12.Cl` [Example 141, [5-(4-carbamoyl-phenyl)-3-(3-ethyl-ureido)-isoquinolin-8-ylmethyl]-carbamic acid prop-2-ynyl ester hydrochloride] it was 0.25 µg/mL; in that of `C#CCOC(=O)NCc1ccc(-c2ccc(CO)nc2)c2cc(NC(=O)NCC)ncc12.Cl` [Example 142, [3-(3-ethyl-ureido)-5-(6-hydroxymethyl-pyridin-3-yl)-isoquinolin-8-ylmethyl]-carbamic acid prop-2-ynyl ester hydrochloride], 1 µg/mL. Regarding `C#CCOC(=O)NCc1ccc(-c2ccc(CO)cc2)c2cc(NC(=O)NCC)ncc12.Cl` [Example 143, [3-(3-ethyl-ureido)-5-(4-hydroxymethyl-phenyl)-isoquinolin-8-ylmethyl]-carbamic acid prop-2-ynyl ester hydrochloride], 0.5 µg/mL was the least that counted as inhibitory (MIC). Under `C#CCOC(=O)NCc1ccc(-c2ccnc(N)c2)c2cc(NC(=O)NCC)ncc12.Cl` [Example 144, [5-(2-amino-pyridin-4-yl)-3-(3-ethyl-ureido)-isoquinolin-8-ylmethyl]-carbamic acid prop-2-ynyl ester hydrochloride] stands 0.5 µg/mL. The compound `CCNC(=O)Nc1cc2c(-c3ccncc3)ccc(CNC(=O)CCCN3CCOCC3)c2cn1` [Example 147, N-[3-(3-ethyl-ureido)-5-pyridin-4-yl-isoquinolin-8-ylmethyl]-4-morpholin-4-yl-butyramide] registered an MIC of 4 µg/mL (≈ 8.39 µM). Regarding `CCNC(=O)Nc1cc2c(Cl)ccc(CNC(=O)OCCCN3CCOCC3)c2cn1` [Example 148, [5-chloro-3-(3-ethyl-ureido)-isoquinolin-8-ylmethyl]-carbamic acid 3-morpholin-4-yl-propyl ester], the lowest concentration to inhibit growth (MIC) was 4 µg/mL (≈ 8.89 µM).

In turn, `CCNC(=O)Nc1cc2c(F)ccc(CNC(=O)OCCCN3CCOCC3)c2cn1` [Example 149, [3-(3-ethyl-ureido)-5-fluoro-isoquinolin-8-ylmethyl]-carbamic acid 3-morpholin-4-yl-propyl ester] had a minimal inhibitory concentration (MIC) of 4 µg/mL (≈ 9.23 µM). Under `C#CCOC(=O)NCc1ccc(F)c2cc(NC(=O)NCC)ncc12` [Example 150, [3-(3-ethyl-ureido)-5-fluoro-isoquinolin-8-ylmethyl]-carbamic acid prop-2-ynyl ester] stands 1 µg/mL (≈ 2.9 µM).
